Experimental data: US20090227533A1, “miR-34 Regulated Genes and Pathways as Targets for Therapeutic Intervention” (priority 2007, published 2009)

Key:
[1] = test system: lung cancer cells A549, H522, H596, Calu-3, HCC2935, H1650, H460, and H226; assay: Alamar Blue proliferation assay, average over eight lung cancer cell lines; assay type: cell-based, human
From the text: The inventors assessed the therapeutic effect of hsa-miR-34a for lung cancer by using eight individual lung cancer cell lines. To measure cellular proliferation of lung cancer cells, the following non-small cell lung cancer (NSCLC) cells were used: cells derived from lung adenocarcinoma (A549, H522, Calu-3, HCC2935), cells derived from lung squamous cell carcinoma (H226), cell derived from lung adenosquamous cell carcinoma (H596), cells derived from lung bronchioalveolar carcinoma (H1650), and cells derived from lung large cell carcinoma (H460). Synthetic hsa-miR-34a (Pre-miR™-hsa-miR-34a, Ambion cat. no. AM17100) or negative control (NC) miRNA (Pre-miR™ microRNA Precursor Molecule-Negative Control #2; Ambion cat. no. AM17111) was delivered via lipid-based transfection into A549, H522, H596, Calu-3, HCC2935, H1650, H460 cells and via electroporation into H226 cells.
Lipid-based reverse transfections were carried out in triplicate according to a published protocol (Ovcharenko et al., 2005) and the following parameters: cells (5,000-12,000 per 96 well), 0.1-0.2 μl Lipofectamine™ 2000 (cat. no. 11668-019, Invitrogen Corp., Carlsbad, Calif., USA) in 20 μl OptiMEM (Invitrogen), 30 nM final concentration of miRNA in 100 μl. […]

[2] = test system: H460 non-small cell lung cancer xenografts; assay: Tumor growth of human lung cancer xenografts, intratumoral injection; assay type: in vivo, NOD/SCID mice
From the text: The inventors assessed the growth-inhibitory activity of hsa-miR-34a in human lung cancer xenografts grown in immunodeficient mice. Each 3×10^6 human H460 non-small cell lung cancer cells were mixed with BD Matrigel™, (BD Biosciences; San Jose, Calif., USA; cat. no. 356237) in a 1:1 ratio and subcutaneously injected into the lower back of 23 NOD/SCID mice (Charles River Laboratories, Inc.; Wilmington, Mass., USA). Once animals developed palpable tumors (day 11 post xenograft implantation), a group of six animals received intratumoral injections of each 6.25 μg hsa-miR-34a (Dharmacon, Lafayette, Colo.) formulated with the lipid-based siPORT™ amine delivery agent (Ambion, Austin, Tex.; cat. no. AM4502) on days 11, 14, and 17. A control group of six animals received intratumoral injections of each 6.25 μg negative control miRNA (NC; Dharmacon, Lafayette, Colo.), following the same injection schedule that was used for hsa-miR-34a. Given an average mouse weight of 20 g, this dose equals 0.3125 mg/kg. […] Caliper measurements were taken every 1-2 days, and tumor volumes were calculated using the formula, Volume=length×width×width/2, in which the length is greater than the width. Average tumor volumes, standard deviations and p-values were calculated and plotted over time (FIG. 4).

hsa-miR-34a: synthetic miRNA; mature sequence UGGCAGUGUCUUAGCUGGUUGUU (MIMAT0000255; SEQ ID NO:1) (synthetic miRNA, chemistry not given here)
average inhibition of cellular proliferation ([1]; average over eight lung cancer cell lines, relative to negative control miRNA): 25.30%
growth-inhibitory activity compared with etoposide ([1]; lung cancer cell lines): comparable to that of etoposide at concentrations ≧10 μM
average tumor volume ([2]; day 19, 6.25 μg intratumoral in siPORT amine on days 11, 14, 17, n=6): 196 mm^3
growth of established H460 lung tumors ([2]; three intratumoral doses): robustly inhibited growth
